How the values were obtained:
APEHSs = assay: Inhibition of S. solfataricus APEH (APEHSs), Ac-Leu-pNA substrate; type: biochemical, Sulfolobus solfataricus
Procedure: (§1) APEH activity was expressed in IU.
(§2) Protease inhibitor activities of the SsCEI peptides and the CLA isomers were carried out using a fixed amount of APEH or partially purified proteasome (3–5 nM and 0.12 mg/mL, respectively), and increasing the SsCEI and CLA isomer concentrations. Mixtures were pre-incubated for 30 min at 37°C before the addition of the substrate, and the enzymatic activities were followed as described above. Protease inhibitor activities of the SsCEI peptides and the CLA isomers were determined towards APEHSs. The protease and increasing concentrations of the inhibitors were mixed and preincubated for 30 min at 80°C before the addition of the specific substrate. The residual enzymatic activity was determined using the assay procedure described above.
(§3) All data were obtained from triplicate analyses of three different preparations. Data were presented as means ±S.D. Statistical analysis and IC50 values were calculated with the SigmaPlot 10.0 software through a non-linear curve-fitting method and using a simple binding isotherm equation. Groups were compared by Student's t test, and P<0.05 was considered as significant.

porcine APEH = target: T1, porcine APEH (Sus scrofa, UniProt P19205); assay: Inhibition of porcine liver APEH, Ac-Ala-pNA substrate; type: biochemical
T1 construct: mammalian APEHs purified from both porcine liver and human colon carcinoma intestinal cells (Caco-2); purchased Takara; host or cells: porcine liver
T1 sequence (P19205 1-732): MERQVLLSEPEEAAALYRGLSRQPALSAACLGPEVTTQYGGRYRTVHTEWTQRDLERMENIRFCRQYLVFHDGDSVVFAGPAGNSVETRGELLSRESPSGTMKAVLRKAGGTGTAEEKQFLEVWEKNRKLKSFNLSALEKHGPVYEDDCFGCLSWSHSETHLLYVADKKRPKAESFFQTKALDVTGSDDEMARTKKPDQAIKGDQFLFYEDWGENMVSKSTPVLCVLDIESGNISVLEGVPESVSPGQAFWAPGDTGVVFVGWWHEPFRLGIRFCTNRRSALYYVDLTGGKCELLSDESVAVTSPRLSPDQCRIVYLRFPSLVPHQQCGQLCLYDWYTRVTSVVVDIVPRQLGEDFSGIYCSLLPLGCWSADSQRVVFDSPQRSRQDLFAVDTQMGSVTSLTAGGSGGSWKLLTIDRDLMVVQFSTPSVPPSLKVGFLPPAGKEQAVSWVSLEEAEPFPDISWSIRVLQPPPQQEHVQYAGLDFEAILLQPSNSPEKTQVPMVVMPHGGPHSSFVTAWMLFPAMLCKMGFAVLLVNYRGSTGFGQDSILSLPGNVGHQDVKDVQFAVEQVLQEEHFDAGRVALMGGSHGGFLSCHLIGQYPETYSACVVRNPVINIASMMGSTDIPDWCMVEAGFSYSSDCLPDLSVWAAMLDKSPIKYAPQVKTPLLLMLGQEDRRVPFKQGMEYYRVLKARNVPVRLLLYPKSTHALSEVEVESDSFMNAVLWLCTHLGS
Procedure: as §1, §2, §3

p21Waf1 in Caco-2 cells = assay: Immunoblot of p21Waf1 in Caco-2 cells; type: cell-based, human; details: 200 µM alone, 48 h
Description: (§4) The following antibodies were used: anti-APEH antibody (sc-102311; Santa Cruz Biotechnology); anti-NF-κB/p65 antibody (Thermo Scientific); anti-p21Waf1 antibody (Exbio); pan Ab-5 anti-actin antibody (clone ACTN05, Thermo Scientific); and monoclonal antibodies against polyubiquitinylated proteins conjugated with horseradish peroxidase (FK2H, Enzo, Life Science). The ΔF508CFTR-3HA protein was detected with an anti HA monoclonal antibody (Covance).

[1] = tested on: polyubiquitinylated proteins in Caco-2 cells; assay: Protein ubiquitinylation in Caco-2 cells (immunoblot); type: cell-based, human; details: 48 h, 200 µM SsCEI 4 or t10c12-CLA, mixture, 100 µM ebelactone, 10 µM MG132, species 66 kDa to 160 kDa
Description: as §4

APEH in Caco-2 cells = assay: APEH activity in Caco-2 cells; details: differentiated Caco-2 cells, 200 µM, 48 h (maximum effect)
Procedure: Porcine liver APEH activity was measured spectrophotometrically using the chromogenic substrate acetyl-Ala-pNA (Bachem). The reaction mixture (1 mL) containing pure APEH (38 ng) or an appropriate amount of cell extract in 50 mM Tris-HCl buffer pH 7.5 (Tris Buffer), was preincubated at 37°C for 2 min. Then, 1 mM acetyl-Ala-pNA was added and the release of p-nitroanilide (ε410 = 8800 M-1 cm-1) was measured by recording the absorbance increase at 410 nm on a Cary 100 Scan (Varian) UV/Vis spectrophotometer, equipped with a thermostated cuvette compartment. APEH activity was expressed in IU. The APEHSs activity was measured using acetyl-Leu-pNA (0.1 mM) (Sigma) as substrate. The reaction mixture (1 mL) containing the appropriate amount of enzyme in 25 mM Tris-HCl buffer pH 7.5, was preincubated at 80°C for 2 min. Then, 0.1 mM acetyl-Leu-pNA was added and the release of p-nitroanilide was measured, following the standard assay procedure described above.
Caco-2 cells (ATCC) were cultivated in DMEM supplemented with 10% FBS, 1 mM glutamine and 100 units/mL penicillin-streptomycin at 37°C in a humidified 5% CO2 atmosphere. The cells were studied between passages 12 and 22. The cells were split using trypsin-EDTA solution and plated in 6-well plates at a density of 8×10^4 cells/mL and the medium was replaced every 2–3 days. Under these conditions, the cells reached visual confluence after 7 days and the differentiated stage two weeks later. The differentiated cells were incubated for 48 h with the different substances.
Following the treatments, the BHK and Caco-2 cells were washed three times with ice cold phosphate-buffered saline and collected immediately at 4°C in lysis buffer (1% Triton X-100, 0.1% SDS, 20 mM Tris-HCl, pH 8.0, 150 mM NaCl, 0.5% sodium deoxycholate and complete protease inhibitors [Roche]). The lysates were centrifuged at 10,000×g for 15 min at 4°C. The protein concentrations in the clear supernatants were determined (BCA protein assay reagent kit; Pierce) before their use in enzymatic assays or SDS–PAGE.

[2] = tested on: proteasome CT-like activity in Caco-2 cells; assay: CT-like proteasome activity in Caco-2 cells
Procedure: The synthetic fluorescent substrate N-succinyl-Leu-Leu-Val-Tyr-7-amido-4-methylcoumarin (N-Suc-LLVT-AMC) was used for the measurement of the CT-like activity of the proteasome, at a final concentration of 0.080 mM. The reaction mixture (0.9 mL) containing appropriate amount of proteasome was preincubated as above, in Tris buffer. N-Suc-LLVT-AMC was added, and the release of the fluorescent product (7-AMC) was monitored for 5 min in a Perkin–Elmer LS 50B fluorimeter. The excitation and emission wavelengths were 380 nm and 460 nm, respectively.
Caco-2 cells (ATCC) were cultivated in DMEM supplemented with 10% FBS, 1 mM glutamine and 100 units/mL penicillin-streptomycin at 37°C in a humidified 5% CO2 atmosphere. The cells were studied between passages 12 and 22. The cells were split using trypsin-EDTA solution and plated in 6-well plates at a density of 8×10^4 cells/mL and the medium was replaced every 2–3 days. […]
Following the treatments, the BHK and Caco-2 cells were washed three times with ice cold phosphate-buffered saline and collected immediately at 4°C in lysis buffer (1% Triton X-100, 0.1% SDS, 20 mM Tris-HCl, pH 8.0, 150 mM NaCl, 0.5% sodium deoxycholate and complete protease inhibitors [Roche]). […] The protein concentrations in the clear supernatants were determined (BCA protein assay reagent kit; Pierce) before their use in enzymatic assays or SDS–PAGE.

Q: `CCCCC/C=C\C=C\CCCCCCCCC(=O)O` [t10c12-CLA, trans10-cis12 CLA] was tested. Which IC50 (APEHSs; Ac-Leu-pNA 0.1 mM, 25 mM Tris-HCl pH 7.5, pre-incubated 30 min at 80°C, mean ± SD, read-out: IC50 towards APEHSs) did it give?
A: 80 ± 2 µM

Q: What about the Ki (APEHSs; Lineweaver–Burk equation, Ac-Leu-pNA, read-out: Ki towards APEHSs) of the same compound?
A: 140 ± 20 µM

Q: What about the “inhibition mechanism towards APEHSs” value (APEHSs; Michaelis–Menten / Lineweaver–Burk analysis) of the same compound?
A: non-competitive

Q: And the IC50 (porcine APEH; Ac-Ala-pNA 1 mM, 50 mM Tris-HCl pH 7.5, pre-incubated 30 min at 37°C, mean ± SD, read-out: IC50 towards porcine APEH)?
A: 105 ± 23 µM

Q: What about the “inhibition mechanism towards porcine APEH” value (porcine APEH; Lineweaver-Burk plot) of the same compound?
A: non–competitive

Q: What about the “increase of p21Waf1” value (p21Waf1 in Caco-2 cells) of the same compound?
A: two

Q: And the “polyubiquitin conjugates in cell extract” value [1]?
A: presence of high-molecular-mass immunoreactive species

Q: And the “decrease of APEH activity in Caco-2 cells” value (APEH in Caco-2 cells)?
A: 50%

Q: And the “reduction in proteasomal CT-like activity” value ([2]; 200 µM, 48 h)?
A: 40%

Q: And the “dose-dependent decrease of CT-like proteasome activity in Caco-2 cells” value ([2]; increasing concentrations, printed 'up to 45% of the residual activity' vs untreated)?
A: up to 45%

Source: paper PMC3189933, “Acylpeptide Hydrolase Inhibition as Targeted Strategy to Induce Proteasomal Down-Regulation” (PLoS ONE, 2011)
